Test results as given in patent US10994015B2, “EGFR proteolysis targeting chimeric molecules and associated methods of use” (Arvinas Operations, Inc., priority 2016, dated 2021).

Columns and labels:
AKT phosphorylation = assay: HGF-driven AKT phosphorylation in MDA-MB-231 cells (immunoblot); type: cell-based; conditions: HGF pulse
Description: Cells were treated with the indicated concentrations of PROTAC or corresponding inhibiting diastereomer for the specified time and then harvested in lysis buffer (25 mM Tris.HCl pH 7.5 with 1% NP-40 and 0.25% deoxycholate, supplemented with 10 mM sodium pyrophosphate, 20 mM ß-glycerophosphate, 10 mM sodium fluoride, 1 mM sodium orthovanadate, 0.1 mM phenylarsine oxide, 10 μg/ml leupeptin, 10 μg/ml pepstatin A, 30 μg/ml bestatin, 0.3 trypsin inhibitor units/ml aprotinin and 1 mM PMSF). Following centrifugation at 16,000×g for 10 min at 4° C. to pellet insoluble materials, the protein concentrations of the supernatants were quantitated by BCA assay (Thermo Fisher Scientific). Protein samples were resolved by 8% SDS-PAGE, electrophoretically transferred to nitrocellulose and probed with the antibodies listed above. Immunoblots were developed using enhanced chemiluminescence and visualized using a Bio-Rad Chemi-Doc MP Imaging System and quantitated with Image Lab v.5.2.1 software (Bio-Rad Laboratories).

GTL16 cells = assay: Cell-proliferation assay in GTL16 cells; type: cell-based; conditions: Homo sapiens, GTL 16
Description: Cell Proliferation Assays
Following PROTAC or diastereomer treatment of cells as indicated, culture medium was supplemented with 330 μg/ml MTS (Promega Corp., Madison, Wis.) and 25 μM phenazine methosulfate (Sigma, St. Louis, Mo.) and incubated at 37° C. Mitochondrial reduction of MTS to the formazan derivative was monitored by measuring the medium's absorbance at 490 nm using a Wallac Victor^2 platereader (Perkin-Elmer Life Sciences, Waltham, Mass.). Data analysis and statistics performed using Prism v7.0 software (GraphPad Software).

COc1cc2c(Oc3ccc(N(C(=O)C4(C(N)=O)CC4)c4ccc(F)cc4)cc3F)ccnc2cc1OCCCOCCCOCCC(=O)N[C@H](C(=O)N1C[C@@H](O)C[C@H]1C(=O)NCc1ccc(-c2scnc2C)cc1)C(C)(C)C (single isomer, unassigned) [diastereomer 8]
fold higher concentration than PROTAC 7 required to completely inhibit agonist-driven AKT phosphorylation (AKT phosphorylation): approximately 10 fold | IC50 (GTL16 cells): 156 nM
